From PMC4063337, “Structure–Activity Relationships of Quinoxaline-Based 5-HT3A and 5-HT3AB Receptor-Selective Ligands” (Chemmedchem, 2013)

Tests used:
[1] = molecular target: T1, 5-HT3A receptor (Homo sapiens, UniProt P46098); experiment: [3H]granisetron competition binding, HEK293 membranes; settings: for Ki: read-out: pKi (A) (converted); for pKi (A): 0.7 nM [3H]granisetron, 10 mM HEPES pH 7.4, 4 °C, at least 24 h
T1 construct: gene HTR3A; homomeric (pentameric) receptor expressed recombinantly in HEK293 cells; cell membranes
T1 sequence (P46098 24-478): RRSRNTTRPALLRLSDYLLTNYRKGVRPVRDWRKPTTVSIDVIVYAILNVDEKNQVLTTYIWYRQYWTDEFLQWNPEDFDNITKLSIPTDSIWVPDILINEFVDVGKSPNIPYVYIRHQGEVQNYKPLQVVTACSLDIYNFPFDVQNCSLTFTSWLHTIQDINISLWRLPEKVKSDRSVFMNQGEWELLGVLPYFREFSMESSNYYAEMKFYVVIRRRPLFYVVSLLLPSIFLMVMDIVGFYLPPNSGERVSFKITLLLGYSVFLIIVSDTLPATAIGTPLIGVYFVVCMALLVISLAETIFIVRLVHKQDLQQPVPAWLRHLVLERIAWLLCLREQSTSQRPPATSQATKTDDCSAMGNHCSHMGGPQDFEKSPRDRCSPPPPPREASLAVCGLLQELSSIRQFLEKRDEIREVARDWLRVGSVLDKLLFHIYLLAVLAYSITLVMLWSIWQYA
From the text: [3H]granisetron competition binding, HEK293 membranes on 5-HT3A receptor

[2] = molecular target: T2, 5-HT3AB receptor (Homo sapiens, UniProt O95264+P46098); experiment: as above; settings: for Ki: read-out: pKi (AB) (converted)
T2 construct: gene HTR3A; heteromeric (pentameric) receptor expressed recombinantly in HEK293 cells; cell membranes; sites at A+A- and possibly A+B- interfaces; with 5-hydroxytryptamine receptor 3B
T2 sequence (P46098 24-478): T1 sequence (P46098 24-478)
T2 sequence (O95264 22-441): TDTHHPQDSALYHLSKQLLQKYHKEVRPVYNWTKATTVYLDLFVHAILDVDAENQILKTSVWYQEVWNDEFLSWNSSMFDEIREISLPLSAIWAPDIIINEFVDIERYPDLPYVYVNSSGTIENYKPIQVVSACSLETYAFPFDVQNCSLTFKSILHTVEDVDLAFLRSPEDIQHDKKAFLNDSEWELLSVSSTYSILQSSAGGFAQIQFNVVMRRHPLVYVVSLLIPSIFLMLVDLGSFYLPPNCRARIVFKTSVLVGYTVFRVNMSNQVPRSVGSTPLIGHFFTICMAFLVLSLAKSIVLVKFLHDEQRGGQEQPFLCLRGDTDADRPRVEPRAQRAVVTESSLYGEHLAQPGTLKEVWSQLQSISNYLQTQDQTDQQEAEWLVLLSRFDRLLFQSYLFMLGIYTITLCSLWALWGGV
From the text: [3H]granisetron competition binding, HEK293 membranes on 5-HT3AB receptor

Row | Ki [1] [nM] | Ki [2] [nM] | Compound | pKi (A) [1] | pKi (AB) ([2]; 0.7 nM [3H]granisetron, 10 mM HEPES pH 7.4, 4 °C, at least 24 h)
1 | 50.1 | 72.4 | CN1CCN(c2nc3cc(Cl)c(Cl)cc3[nH]c2=O)CC1 [compound 34, 34] |  | 
2 | 1 | 5.75 | CCOc1nc2ccccc2nc1N1CCN(C)CC1 [compound 29, 29] |  | 
3 | 1.12 | 14.1 | CN1CCN(c2nc3ccc(Cl)cc3nc2Cl)CC1 [compound 23, 3,6-Dichloro-2-(4-methylpiperazin-1-yl)quinoxaline] |  | 
4 | 537 | 195 | CN1CCN(c2nc3ccccc3nc2OC2CCCCC2)CC1 [compound 30, 30] |  | 
5 | 87.1 | 170 | CN1CCN(c2nc3ccccc3nc2Oc2ccccc2)CC1 [compound 31, 31] |  | 
6 | 32.4 | 77.6 | CNC1CCN(c2cnc3ccccc3n2)C1 (stereo not shown) [compound 21, N-Methyl-1-(quinoxalin-2-yl)pyrrolidin-3-amine] |  | 
7 | 44.7 | 38 | CN1CCN(c2nc3ccccc3nc2C(F)(F)F)CC1 [compound 27, 27] |  | 
8 | 129 | 75.9 | CN1CCN(c2nc3ccccc3nc2OCc2ccccc2)CC1 [compound 32, 32] |  | 

The remaining lines, values behind:

Row | Compound | Ki [1] [nM] | Ki [2] [nM] | pKi (A) [1] | pKi (AB) ([2]; 0.7 nM [3H]granisetron, 10 mM HEPES pH 7.4, 4 °C, at least 24 h)
9 | CNC1CCN(c2nc3ccccc3nc2Cl)C1 (stereo not shown) [compound 18, 1-(3-Chloroquinoxalin-2-yl)-N-methylpyrrolidin-3-amine] | 204 | 214 |  | 
10 | CN1CCCN(c2nc3ccccc3nc2Cl)CC1 [compound 16, 2-Chloro-3-(4-methyl-1,4-diazepan-1-yl)quinoxaline] | 0.776 | 4.57 |  | 
11 | CN1CCN(c2nc3ccccc3nc2Cl)CC1 [VUF10166, 2-chloro-3-(4-methylpiperazin-1-yl)quinoxaline] |  | 12.6 | 9.82±0.26 | 
12 | CN1CCN(c2cnc3cc(Cl)c(Cl)cc3n2)CC1 [compound 7, 6,7-Dichloro-2-(4-methylpiperazin-1-yl)quinoxaline] | 3.89 | 8.51 |  | 
13 | COc1nc2ccccc2nc1N1CCN(C)CC1 [compound 28, 28] | 0.661 | 4.57 |  | 
14 | CN1CCN(c2nc3ccccc3[nH]c2=O)CC1 [compound 1, 3-(4-methylpiperazin-1-yl)quinoxalin-2-ol] | 1.17 | 0.437 |  | 
15 | CN1CCN(c2cnc3cc(Cl)ccc3n2)CC1 [compound 33, 33] | 16.2 | 102 |  | 
16 | CN1CCCN(c2cnc3ccccc3n2)CC1 [compound 19, 2-(4-Methyl-1,4-diazepan-1-yl)quinoxaline] | 8.13 | 33.1 |  | 
17 | CN1CCN(c2nc3ccccc3nc2N)CC1 [compound 10, 3-(4-Methylpiperazin-1-yl)quinoxalin-2-amine] | 2.95 | 30.9 |  | 
18 | CN1CCN(c2cnc3ccccc3n2)CC1 [compound 24, 2-(4-methylpiperazin-1-yl)quinoxaline] |  |  | 8.21±0.26 | 9.13±0.30
19 | CN1CCN(c2nc3ccccc3nc2Br)CC1 [compound 14, 2-Bromo-3-(4-methylpiperazin-1-yl)quinoxaline] | 0.49 | 1.41 |  | 
20 | Cc1nc2ccccc2nc1N1CCN(C)CC1 [compound 26, 26] | 2.57 | 3.8 |  | 
21 | CN1CCN(c2nc3ccc(Cl)cc3[nH]c2=O)CC1 [compound 22, 7-chloro-3-(4-methylpiperazin-1-yl)quinoxalin-2(1H)-one] | 31.6 | 7.24 |  | 
22 | CN1CCN(c2nc3cc(Cl)c(Cl)cc3nc2Cl)CC1 [compound 11, 2,6,7-Trichloro-3-(4-methylpiperazin-1-yl)quinoxaline] | 8.13 | 33.1 |  | 
23 | CCc1nc2ccccc2nc1N1CCN(C)CC1 [compound 6, 2-Ethyl-3-(4-methylpiperazin-1-yl)quinoxaline] | 0.631 | 1.45 |  | 
